{"source": "patent US20250340561A1", "about": "“QUINAZOLINE COMPOUND FOR INDUCING DEGRADATION OF G12D MUTANT KRAS PROTEIN” (Astellas Pharma Inc., priority 2021, published 2025)"}
{"tested_on": "human KRAS G12D mutant-positive PK-59 pancreatic cancer cell line-derived xenograft", "experiment": "Test Example 4: anti-tumor activity in PK-59 xenograft mice", "format": "in vivo", "details": "PK-59 xenograft nude mice, 10 mg/kg into tail vein, twice with an interval of once a week", "protocol": "Test Example 4: Evaluation of Anti-Tumor Activity in Human KRAS G12D Mutant-Positive PK-59 Pancreatic Cancer Cell Line-Derived Xenograft Mice\nPK-59 cells (RTKEN BRC, RCB 1901) were cultured using a RPMI 1640 medium containing 10% fetal bovine serum in the presence of 5% CO2 at 37° C. The PK-59 cells were collected and suspended in PBS, and after adding an equal amount of Matrigel (from Becton, Dickinson and Company), the cell suspension prepared at 1.0×10^7 to 2.0×10^7 cells/mL was subcutaneously inoculated in a volume of 100 μL in 4- to 6-week-old male nude mice (CAnN.Cg-Foxn1^nu/CrlCrlj (nu/nu), from Charles River Laboratories Japan). About two weeks after the inoculation, the mice were divided into groups so that all the groups had approximately the same tumor volume and body weight, and administration of test compounds was started on the next day. The study was conducted for 5 mice each of a vehicle group and test compound administration groups. The compounds of Example 8, Example 48 and Example 70 were dissolved in a solvent containing ethanol (from FUJIFILM Wako Pure Chemical Corporation), a 5% glucose solution (from Otsuka Pharmaceutical), 1M hydrochloric acid (from Kanto Chemical Co., Inc.), an aqueous 50% (2-hydroxypropyl)-β-cyclodextrin (HP-βCD) solution (from ROQUETTE), HCO-40 (from Nikko Chemicals Co., Ltd.) and an aqueous 1M sodium hydroxide solution (from Kanto Chemical Co., Inc.) at a liquid amount ratio of 4:84.4:1.1:1:9:0.5. The compounds of Example 22 and Example 26 were dissolved in a solvent containing propylene glycol (from FUJIFILM Wako Pure Chemical Corporation), Tween80 (from Nacalai Tesque) and Otsuka normal saline (from Otsuka Pharmaceutical) at a liquid amount ratio of 6.7:3.3:90. The compound of Example 39 was dissolved in a solvent containing propylene glycol, ethanol, an aqueous 50% HP-PCD solution, HCO-40 and a 5% glucose solution at a liquid amount ratio of 10:8:10:10:62. The test compounds dissolved in the respective solvents or the solvents were administered into tail vein. The administration was performed twice with an interval of once a week. The tumor sizes and the body weights were measured twice a week. The tumor volumes were calculated using the following equation.\n[Tumor volume (mm^3)]=[Major axis of tumor (mm)]×[Minor axis of tumor (mm)]^2×0.5\nThe tumor growth inhibitions (%) by the test compounds were calculated with the tumor volumes of the test compound administration groups on the previous day of the start of the administration taken as 100% inhibition and the tumor volumes of the vehicle groups two weeks after the initial administration taken as 0% inhibition. In addition, when the tumor volume of a test compound administration group was smaller than the tumor volume on the previous day of the start of the administration, the tumor regression (%) by the test compound was calculated with the tumor volume on the previous day of the start of the administration taken as 0% regression and with the tumor volume 0 taken as 100% regression. The molecular weights of the test compounds were calculated as the molecular weights of the dihydrochloride for Example No. 22 and the free forms forming no salt for the remaining Example Nos. The results for some test compounds of the formula (I) are shown in Table 5.", "units": {"Anti-Tumor Activity Two Weeks After Initial Administration (tumor growth inhibition)": "% inhibition", "Anti-Tumor Activity Two Weeks After Initial Administration (tumor regression)": "% regression"}}
{"smiles": "Cc1ncsc1-c1ccc([C@H](CO)NC(=O)[C@@H]2C[C@@H](O)CN2C(=O)[C@H](C(C)C)n2cc(-c3ccc(COc4c(-c5c(C)c(F)cc6[nH]ncc56)c(C5CC5)cc5c(N6C[C@@H]7C[C@H]6CN7)nc(OC6CCOCC6)nc45)cc3)nn2)cc1", "note": "[Example 8, (4R)-1-[(2S)-2-(4-{4-[({6-cyclopropyl-4-[(1S,4S)-2,5-diazabicyclo[2.2.1]heptan-2-yl]-7-(6-fluoro-5-methyl-1H-indazol-4-yl)-2-[(oxan-4-yl)oxy]quinazolin-8-yl}oxy)methyl]phenyl}-1H-1,2,3-triazol-1-yl)-3-methylbutanoyl]-4-hydroxy-N-{(1R)-2-hydroxy-1-[4-(4-methyl-1,3-thiazol-5-yl)phenyl]ethyl}-L-prolinamide]", "Anti-Tumor Activity Two Weeks After Initial Administration (tumor growth inhibition)": 98}
{"smiles": "Cc1c(F)cc2[nH]ncc2c1-c1c(C2CC2)cc2c(N3C[C@@H]4C[C@H]3CN4)nc(OC3CCOCC3)nc2c1OCc1ccc(-c2cn([C@H](C(=O)N3C[C@H](O)C[C@H]3C(=O)N[C@@H](CO)c3ccc(-c4ccnn4C)cc3)C(C)C)nn2)cc1", "note": "[Example 22]", "Anti-Tumor Activity Two Weeks After Initial Administration (tumor growth inhibition)": 93}
{"smiles": "CCn1nccc1-c1ccc([C@H](CO)NC(=O)[C@@H]2C[C@@H](O)CN2C(=O)[C@H](C(C)C)n2cc(-c3ccc(COc4c(-c5c(C)c(F)cc6[nH]ncc56)c(C5CC5)cc5c(N6C[C@@H]7C[C@H]6CN7)nc(OC6CCOCC6)nc45)cc3)nn2)cc1", "note": "[Example 26]", "Anti-Tumor Activity Two Weeks After Initial Administration (tumor growth inhibition)": 94}
{"smiles": "CO[C@@H](C)COc1nc(N2C[C@@H]3C[C@H]2CN3)c2cc(C3CC3)c(-c3c(C)c(F)cc4[nH]ncc34)c(OCc3ccc(-c4cn([C@H](C(=O)N5C[C@H](O)C[C@H]5C(=O)N[C@@H](CO)c5ccc(-c6scnc6C)cc5)C(C)C)nn4)cc3)c2n1", "note": "[Example 48]", "Anti-Tumor Activity Two Weeks After Initial Administration (tumor regression)": 32}
{"smiles": "CO[C@H](C)[C@@H](C)Oc1nc(N2C[C@@H]3C[C@H]2CN3)c2cc(C3CC3)c(-c3c(C)c(F)cc4[nH]ncc34)c(OCc3ccc(-c4cn([C@H](C(=O)N5C[C@H](O)C[C@H]5C(=O)N[C@@H](CO)c5ccc(-c6scnc6C)cc5)C(C)C)nn4)cc3)c2n1", "note": "[Example 39]", "Anti-Tumor Activity Two Weeks After Initial Administration (tumor regression)": 13}
{"smiles": "CCn1nccc1-c1ccc([C@H](CO)NC(=O)[C@@H]2C[C@@H](O)CN2C(=O)[C@H](C(C)C)n2cc(-c3ccc(COc4c(-c5c(C)c(F)cc6[nH]ncc56)c(C5CC5)cc5c(N6C[C@@H]7C[C@H]6CN7)nc(OC[C@H](C)OC)nc45)cc3)nn2)cc1", "note": "[Example 70]", "Anti-Tumor Activity Two Weeks After Initial Administration (tumor regression)": 42}
